According to patent publication US11426362B2, “Oral cannabinoid formulations” (GW Research Limited, priority 2017, dated 2022):

Tests used:
[1] = oral and parenteral administration in animals; cited from earlier work
[2] = Antioxidant screening in the formulation; format: physicochemical; conditions: alpha-tocopherol at 0.5% concentration in surfactant phase; ascorbic acid in aqueous phase
From the text: Alpha tocopherol and ascorbic acid were screened for their effectiveness for use within the formulation. Ascorbic acid was used in the aqueous phase whereas the alpha tocopherol was used in the surfactant phase in terms of order of addition.

[3] = cited from earlier work

Structure (SMILES) | acute toxicity [1] | appearance of solutions containing the antioxidant [2] | further results
COC(=O)c1ccc(O)cc1 [methylparaben, methyl parahydroxybenzoate] | practically non-toxic |  | 
Cc1c(C)c2c(c(C)c1O)CC[C@@](C)(CCC[C@H](C)CCC[C@H](C)CCCC(C)C)O2 [alpha-tocopherol] |  | hazy | 
OC[C@H]1O[C@H](O[C@]2(CCl)O[C@H](CCl)[C@@H](O)[C@@H]2O)[C@H](O)[C@@H](O)[C@H]1Cl [Sucralose] |  |  | ADI limit ([3]; pediatric population): 5 mg/kg/day
CCCOC(=O)c1ccc(O)cc1 [propyl paraben, propyl parahydroxybenzoate] | relatively non-toxic |  | permitted daily exposure (PDE) ([3]; adults and pediatric patients): 2 mg/kg/day
O=C1O[C@H]([C@@H](O)CO)C(O)=C1O [ascorbic acid] |  | clear colourless solutions | 
